Laboratory results: US8940898B2, “Piperidinyl alkyne orexin receptor antagonists” (Merck Sharp & Dohme Corp., priority 2011, dated 2015)

Tests used:
human orexin-2 receptor = biological target: T1, human orexin-2 receptor (Homo sapiens, UniProt O43614); assay: radioligand binding assay, OX2 receptor (hOX2 Bind hKi); details: membranes from CHO cells expressing the OX2 receptor
T1 construct: expressed in transfected cells; host or cells: CHO cells (membranes)
T1 sequence (O43614 1-444): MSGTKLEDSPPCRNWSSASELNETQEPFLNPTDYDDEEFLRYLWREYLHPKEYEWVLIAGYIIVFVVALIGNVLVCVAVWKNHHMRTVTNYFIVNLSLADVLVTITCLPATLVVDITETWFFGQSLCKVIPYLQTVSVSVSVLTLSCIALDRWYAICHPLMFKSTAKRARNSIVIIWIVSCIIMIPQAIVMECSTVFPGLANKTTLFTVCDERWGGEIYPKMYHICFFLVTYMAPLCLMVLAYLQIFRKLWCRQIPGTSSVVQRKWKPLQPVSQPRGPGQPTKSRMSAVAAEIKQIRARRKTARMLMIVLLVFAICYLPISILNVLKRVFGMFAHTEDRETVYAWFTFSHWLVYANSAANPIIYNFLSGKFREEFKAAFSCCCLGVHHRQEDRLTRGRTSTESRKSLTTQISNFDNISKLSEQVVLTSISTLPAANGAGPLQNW
Protocol: The utility of the compounds in accordance with the present invention as orexin receptor OX1R and/or OX2R antagonists may be readily determined without undue experimentation by methodology well known in the art, including the “FLIPR Ca^2+ Flux Assay” (Okumura et al., Biochem. Biophys. Res. Comm. 280:976-981, 2001). In a typical experiment the OX1 and OX2 receptor antagonistic activity of the compounds of the present invention was determined in accordance with the following experimental method. For intracellular calcium measurements, Chinese hamster ovary (CHO) cells expressing the rat orexin-1 receptor or the human orexin-2 receptor, are grown in Iscove's modified DMEM containing 2 mM L-glutamine, […], 1% hypoxanthine-thymidine supplement, 100 U/ml penicillin, 100 μg/ml streptomycin and 10% heat-inactivated fetal calf serum (FCS). The cells are seeded at 20,000 cells/well into Becton-Dickinson black 384-well clear bottom sterile plates coated with poly-D-lysine. All reagents were from GIBCO-Invitrogen Corp. The seeded plates are incubated overnight at 37° C. and 5% CO2. Ala-6,12 human orexin-A as the agonist is prepared as a 1 mM stock solution in 1% bovine serum albumin (BSA) and diluted in assay buffer (HBSS containing 20 mM HEPES, 0.1% BSA and 2.5 mM probenecid, pH7.4) for use in the assay at a final concentration of 70 pM. Test compounds are prepared as 10 mM stock solution in DMSO, then diluted in 384-well plates, first in DMSO, then assay buffer. On the day of the assay, cells are washed 3 times with 100 μl assay buffer and then incubated for 60 min (37° C., 5% CO2) in 60 μl assay buffer containing 1 μM Fluo-4AM ester, 0.02% pluronic acid, and 1% BSA. The dye loading solution is then aspirated and cells are washed 3 times with 100 μl assay buffer. 30 μl of that same buffer is left in each well. Within the Fluorescent Imaging Plate Reader (FLIPR, Molecular Devices), test compounds are added to the plate in a volume of 25 μl, incubated for 5 min and finally 25 μl of agonist is added. Fluorescence is measured for each well at 1 second intervals for 5 minutes and the height of each fluorescence peak is compared to the height of the fluorescence peak induced by […] Ala-6,12 orexin-A with buffer in place of antagonist. For each antagonist, IC50 value (the concentration of compound needed to inhibit 50% of the agonist response) is determined. Alternatively, compound potency can be assessed by a radioligand binding assay (described in Bergman et. al. Bioorg. Med. Chem. Lett. 2008, 18, 1425-1430) in which the inhibition constant (Ki) is determined in membranes prepared from CHO cells expressing either the OX1 or OX2 receptor. The intrinsic orexin receptor antagonist activity of a compound which may be used in the present invention may be determined by these assays. The following tables show representative data for the compounds of the Examples as orexin receptor antagonists as determined by the foregoing assays wherein the hOX2 Ki is a measure of the ability of the test compound to inhibit the action of the human orexin-2 receptor and the hOX1R is a measure of the ability of the test compound to inhibit the action of the rat orexin-1 receptor.

hOX1 (orexin-1 receptor) = biological target: T2, hOX1 (orexin-1 receptor) (Homo sapiens, UniProt O43613); assay: radioligand binding assay, OX1 receptor (hOX1 Bind hKi); details: membranes from CHO cells expressing the OX1 receptor
T2 construct: expressed in transfected cells; host or cells: CHO cells (membranes)
T2 sequence (O43613 1-425): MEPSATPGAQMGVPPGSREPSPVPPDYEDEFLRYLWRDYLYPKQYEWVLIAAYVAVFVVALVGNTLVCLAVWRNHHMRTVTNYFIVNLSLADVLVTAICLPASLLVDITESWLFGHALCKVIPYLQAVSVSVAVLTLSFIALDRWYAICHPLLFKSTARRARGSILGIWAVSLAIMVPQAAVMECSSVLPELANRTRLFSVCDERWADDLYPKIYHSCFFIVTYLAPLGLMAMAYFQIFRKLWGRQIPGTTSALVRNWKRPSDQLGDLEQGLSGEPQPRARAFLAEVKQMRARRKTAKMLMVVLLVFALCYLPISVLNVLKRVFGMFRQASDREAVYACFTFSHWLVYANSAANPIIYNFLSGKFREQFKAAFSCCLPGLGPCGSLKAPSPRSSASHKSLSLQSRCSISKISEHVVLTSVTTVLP

Row | Ki (human orexin-2 receptor) | Ki (hOX1 (orexin-1 receptor)) | Structure (SMILES)
1 | > 6120 nM | > 1600 nM | Cc1nc(C(=O)N2CCCCC2C#Cc2cnc3ccccc3c2)c(-c2ccccc2)s1 (stereo not drawn) [Example 26, 3-({1-[(2-methyl-5-phenyl-1,3-thiazol-4-yl)carbonyl]piperidin-2-yl}ethynyl)quinoline]
2 | 0.53 nM | 0.56 nM | C[C@@H]1CC[C@@H](C#Cc2ccccc2CO)CN1C(=O)c1ccccc1-n1nccn1 [Example 6, (2-{[(3S,6R)-6-methyl-1-{[2-(2H-1,2,3-triazol-2-yl)phenyl]carbonyl}piperidin-3-yl]ethynyl}phenyl)methanol]
3 | > 100 nM | > 364 nM | Cc1nc(C(=O)N2CCCCC2C#Cc2cc3ccccc3cn2)c(-c2ccccc2)s1 (stereo not drawn) [Example 25, 3-({1-[(2-methyl-5-phenyl-1,3-thiazol-4-yl)carbonyl]piperidin-2-yl}ethynyl)isoquinoline]
